Test results taken from patent US9717243B2, “Piperidinecarboxylic acid derivatives as fungicides” (priority 2013, dated 2017).
Where two headings read alike, the source gives them in different places.

Columns and labels:
[1] = LogP by HPLC on reversed phase columns (EEC directive 79/831 Annex V.A8); type: physicochemical
Description: Calibration was done with straight-chain alkan2-ones (with 3 to 16 carbon atoms) with known LogP values (measurement of LogP values using retention times with linear interpolation between successive alkanones). Lambda-max-values were determined using UV-spectra from 200 nm to 400 nm and the peak values of the chromatographic signals.

Plasmopara viticola = experiment: Plasmopara test (grapevines)/preventive; conditions: preventive, evaluated 6 days after inoculation, 0% = untreated control, 100% = no disease
Description: Plasmopara Test (Grapevines)/Preventive • Solvent: 24.5 parts by weight of acetone • 24.5 parts by weight of dimethylacetamide • Emulsifier: 1 part by weight of alkylaryl polyglycol ether
After the spray coating has dried on, the plants are inoculated with an aqueous spore suspension of Plasmopara viticola and then remain for 1 day in an incubation cabinet at approximately 20° C. and a relative atmospheric humidity of 100%. The plant is subsequently placed for 4 days in a greenhouse at approximately 21° C. and a relative atmospheric humidity of approximately 90%. The plants are then misted and placed for 1 day in an incubation cabinet.
The test is evaluated 6 days after the inoculation.

Phytophthora infestans = type: in vivo; conditions: 100 ppm of active ingredient; preventive, tomatoes; evaluated 3 days after inoculation; 0% = untreated control, 100% = no disease
[2] = Table 2, compounds of formula (IV), LC-UV, acidic range, 0.1% formic acid in water and acetonitrile as eluent, read-out: Log P[a]

For `C#CCOc1ccc(F)c(F)c1C1CC(c2csc(C3(C(=O)OC)CCN(C(=O)Cn4nc(C(F)F)cc4C(F)F)CC3)n2)=NO1` (stereo not shown) [Example I-3], the “Log P[a]” value [1] was 3.61 and the Efficacy % (Plasmopara viticola; 1 ppm of active ingredient) was 93%.
`COC(=O)C1(c2nc(C3=NOC(c4ccccc4OS(C)(=O)=O)C3)cs2)CCN(C(=O)Cn2nc(C(F)F)cc2C(F)F)CC1` (stereo not shown) [Example I-7, methyl 1-{[3,5-bis(difluoromethyl)-1H-pyrazol-1-yl]acetyl}-4-[4-(5-{2-[(methylsulfonyl)oxy]phenyl}-4,5-dihydro-1,2-oxazol-3-yl)-1,3-thiazol-2-yl]piperidine-4-carboxylate] gave a chromatographic logP ([1]; Table 1, compounds of formula (I), LC-UV, acidic range, 0.1% formic acid in water and acetonitrile as eluent, read-out: Log P[a]) of 3.27, an Efficacy % (Plasmopara viticola; 100 ppm of active ingredient) of 100% and an Efficacy % (Phytophthora infestans) of 95%.
In the case of `COC(=O)C1(c2nc(C3=NOC(c4ccccc4OS(C)(=O)=O)C3)cs2)CCN(C(=O)Nc2cc(C(F)F)ccc2C(F)F)CC1` (stereo not shown) [Example I-9], the “Log P[a]” value [1] is reported as 3.42, the Efficacy % (Plasmopara viticola; 100 ppm of active ingredient) is reported as 100% and the Efficacy % (Phytophthora infestans) is reported as 91%.
For `COC(=O)C1(c2nc(C3=NOC(c4ccccc4OS(C)(=O)=O)C3)cs2)CCN(C(=O)Nc2cn(C(F)F)nc2C)CC1` (stereo not shown) [Example I-10], the “Log P[a]” value [1] was 2.64, the Efficacy % (Plasmopara viticola; 100 ppm of active ingredient) was 96% and the Efficacy % (Phytophthora infestans) was 94%.
In the case of `COC(=O)C1(c2nc(C3=NOC(c4ccccc4OS(C)(=O)=O)C3)cs2)CCN(C(=O)Nc2cc(C)ccc2C)CC1` (stereo not shown) [Example I-11], the “Log P[a]” value [1] is reported as 3.29, the Efficacy % (Plasmopara viticola; 100 ppm of active ingredient) is reported as 100% and the Efficacy % (Phytophthora infestans) is reported as 100%.
In the case of `C#CCOc1ccc(F)c(F)c1C1CC(c2csc(C3(C(=O)OC)CCN(C(=O)Cn4nc(C(F)F)cc4C)CC3)n2)=NO1` (stereo not shown) [Example I-66], the “Log P[a]” value [1] is reported as 3.33 and the Efficacy % (Plasmopara viticola; 1 ppm of active ingredient) is reported as 76%.
With `CC(C)OC(=O)C1(C#N)CCN(C(=O)Cn2nc(C(F)F)cc2C(F)F)CC1` [IV-10] the “Log P[a]” value [1] was 2.84.
In the case of `CCOC(=O)C1(C#N)CCN(C(=O)Cn2nc(C(F)F)cc2C(F)F)CC1` [IV-11], the “Log P[a]” value [1] is reported as 2.55.
In the case of `N#CC1(C(=O)O)CCN(C(=O)Cn2nc(C(F)F)cc2C(F)F)CC1` [IV-12], the “Log P[a]” value [1] is reported as 1.44.
Work on `COC(=O)C1(C#N)CCN(C(=O)Cn2nc(C(F)F)cc2C(F)F)CC1` [IV-13, methyl 1-{[3,5-bis(difluoromethyl)-1H-pyrazol-1-yl]acetyl}-4-cyanopiperidine-4-carboxylate] yielded a chromatographic logP [1, 2] of 2.26.
In the case of `Cc1cc(C(F)(F)F)nn1CC(=O)N1CCC(C#N)(C(=O)O)CC1` [IV-14], the “Log P[a]” value [1] is reported as 1.50.
In the case of `COC(=O)C1(C#N)CCN(C(=O)Nc2cc(C(F)F)ccc2C(F)F)CC1` [IV-16], the “Log P[a]” value [1] is reported as 2.47.
In the case of `COC(=O)C1(C#N)CCN(C(=O)Nc2cc(C(F)F)nn2C)CC1` [IV-17, methyl 4-cyano-1-{[3-(difluoromethyl)-1-methyl-1H-pyrazol-5-yl]carbamoyl}piperidine-4-carboxylate], the chromatographic logP [1, 2] is reported as 1.53.
With `COC(=O)C1(C#N)CCN(C(=O)Nc2cn(C(F)F)nc2C)CC1` [IV-18] the “Log P[a]” value [1] was 1.51.
With `COC(=O)C1(C#N)CCN(C(=O)Nc2cc(C)ccc2C)CC1` [IV-19] the “Log P[a]” value [1] was 2.26.
With `CC(C)(C)OC(=O)C1(C#N)CCN(C(=O)Nc2ccccc2)CC1` [IV-20] the “Log P[a]” value [1] was 2.82.
For `N#CC1(C(=O)O)CCN(C(=O)Nc2ccccc2)CC1` [IV-21], the “Log P[a]” value [1] was 1.16.
For `CC(C)(C)OC(=O)C1(C#N)CCN(C(=O)Nc2ccc(F)cc2)CC1` [IV-22], the “Log P[a]” value [1] was 2.96.
For `CC(C)(C)OC(=O)C1(C#N)CCN(C(=O)Cc2ccccc2)CC1` [IV-23], the “Log P[a]” value [1] was 2.96.
In the case of `CC(C)(C)OC(=O)C1(C#N)CCN(C(=O)Cc2ccc(Cl)cc2)CC1` [IV-24], the “Log P[a]” value [1] is reported as 3.37.
With `CC(C)(C)OC(=O)C1(C#N)CCN(C(=S)Nc2ccccc2C(F)(F)F)CC1` [IV-25] the “Log P[a]” value [1] was 3.50.
In the case of `CC(C)(C)OC(=O)C1(C#N)CCN(C(=S)Nc2cccc(Cl)c2)CC1` [IV-26], the “Log P[a]” value [1] is reported as 3.72.
In the case of `CC(C)(C)OC(=O)C1(C#N)CCN(C(=S)Nc2ccc(OC(F)(F)F)cc2)CC1` [IV-27], the “Log P[a]” value [1] is reported as 4.01.
For `CC(C)(C)OC(=O)C1(C#N)CCN(C(=O)Nc2ccc(Cl)c(C(F)(F)F)c2)CC1` [IV-28], the “Log P[a]” value [1] was 4.06.
With `CC(C)(C)OC(=O)C1(C#N)CCN(C(=O)Nc2cccc(C#N)c2)CC1` [IV-29] the “Log P[a]” value [1] was 2.88.
For `N#CC1(C(=O)O)CCN(C(=O)Nc2ccc(Cl)c(C(F)(F)F)c2)CC1` [IV-30], the “Log P[a]” value [1] was 2.42.
For `N#Cc1cccc(NC(=O)N2CCC(C#N)(C(=O)O)CC2)c1` [IV-31], the “Log P[a]” value [1] was 1.29.
For `N#CC1(C(=O)O)CCN(C(=S)Nc2cccc(Cl)c2)CC1` [IV-32], the “Log P[a]” value [1] was 2.01.
For `N#CC1(C(=O)O)CCN(C(=S)Nc2ccc(OC(F)(F)F)cc2)CC1` [IV-33], the “Log P[a]” value [1] was 2.33.
In the case of `COC(=O)C1(C#N)CCN(C(=O)Nc2cn(C)nc2C(F)F)CC1` [IV-34], the “Log P[a]” value [1] is reported as 1.40.
For `CCC(C)NC(=O)C1(C#N)CCN(C(=S)Nc2cccc(Cl)c2)CC1` (stereo not shown) [IV-35], the “Log P[a]” value [1] was 2.69.
With `CCC(C)NC(=O)C1(C#N)CCN(C(=O)Nc2cccc(C#N)c2)CC1` (stereo not shown) [IV-36] the “Log P[a]” value [1] was 1.28.
In the case of `CCC(C)NC(=O)C1(C#N)CCN(C(=O)Cc2ccc(Cl)cc2)CC1` (stereo not shown) [IV-37], the “Log P[a]” value [1] is reported as 2.46.
With `CCC(C)NC(=O)C1(C#N)CCN(C(=O)Cc2ccccc2)CC1` (stereo not shown) [IV-38] the “Log P[a]” value [1] was 2.08.
For `CCC(C)NC(=O)C1(C#N)CCN(C(=O)Nc2ccc(Cl)c(C(F)(F)F)c2)CC1` (stereo not shown) [IV-39], the “Log P[a]” value [1] was 3.15.
In the case of `CC(C)=CCN(C)C(=O)C1(C#N)CCN(C(=O)Nc2ccc(F)cc2)CC1` [IV-40], the “Log P[a]” value [1] is reported as 2.71.
With `CC(C)=CCN(C)C(=O)C1(C#N)CCN(C(=O)Nc2ccccc2)CC1` [IV-41] the “Log P[a]” value [1] was 2.61.
In the case of `CC(C)=CCNC(=O)C1(C#N)CCN(C(=O)Nc2ccccc2)CC1` [IV-42], the “Log P[a]” value [1] is reported as 2.26.
For `CC(C)=CCNC(=O)C1(C#N)CCN(C(=O)Nc2ccc(Cl)cc2)CC1` [IV-43], the “Log P[a]” value [1] was 2.68.
In the case of `CC(C)=CCNC(=O)C1(C#N)CCN(C(=O)Nc2ccc(F)cc2)CC1` [IV-44], the “Log P[a]” value [1] is reported as 2.16.
With `CCC(C)NC(=O)C1(C#N)CCN(C(=O)Nc2ccccc2)CC1` (stereo not shown) [IV-45] the “Log P[a]” value [1] was 2.13.
In the case of `CC(C)=CCN(C)C(=O)C1(C#N)CCN(C(=O)Nc2ccc(Cl)cc2)CC1` [IV-46], the “Log P[a]” value [1] is reported as 3.03.
With `CCCCNC(=O)C1(C#N)CCN(C(=O)Nc2ccccc2)CC1` [IV-48] the “Log P[a]” value [1] was 2.20.
Compound `COC(=O)C1(C#N)CCN(C(=O)CCl)CC1` [VI-1, methyl 1-(chloroacetyl)-4-cyanopiperidine-4-carboxylate] has a chromatographic logP ([1]; Table 3, compounds of formula (VI), LC-UV, acidic range, 0.1% formic acid in water and acetonitrile as eluent, read-out: Log P[a]) of 1.27.
Work on `Cn1nc(C(F)F)cc1NC(=O)Oc1ccccc1` [phenyl [3-(difluoromethyl)-1-methyl-1H-pyrazol-5-yl]carbamate] yielded a chromatographic logP ([1]; pH 2.7, synthesis intermediates in preparation examples, read-out: LogP (pH 2.7)) of 2.18.
